Experimental data from US4904764A, “4-diazo-3-methyl-2,5-cyclohexadine-1-one and pharmacetically acceptable salts thereof” (E. R. Squibb & Sons, Inc., priority 1985, dated 1990).
≈ marks a conversion by molar mass, not a printed value.

Key:
[1] = system: Hemophilus vaginalis SC8568; experiment: Agar dilution assay, anaerobic bacteria (MIC); format: cell-based; conditions: Gardnerella vaginalis; H. vaginalis SC8568; DST agar, 10^5 CFU, 37° C., 18 hours, anaerobic chamber
[2] = system: Pseudomonas anaerobius SC11263; experiment: Agar dilution assay, anaerobic bacteria (MIC); format: cell-based; conditions: DST agar, 10^5 CFU, 37° C., 18 hours, anaerobic chamber
[3] = system: Klebsiella aerogenes SC10440; experiment: Agar dilution assay, aerobic test organisms (MIC); conditions: SC10440, 18 h
Proteus mirabilis SC3855 = experiment: Agar dilution assay, aerobic test organisms (MIC); conditions: SC3855, 18 h
[4] = system: Escherichia colid SC10909; experiment: Agar dilution assay, aerobic test organisms (MIC); conditions: SC10909, 18 h
Shigella sonnei SC8449 = experiment: Agar dilution assay, aerobic test organisms (MIC); format: cell-based; conditions: S. sonnei SC8449, K-10 agar, 10^4 CFU, 37° C., 18 hours, protected from light
Escherichia coli SC10896 = experiment: Agar dilution assay, aerobic test organisms (MIC); conditions: SC10896, 18 h
[5] = system: gram positive and gram negative bacteria; experiment: Antibacterial activity (general statement); format: cell-based
[6] = system: Bacteroides thetaiotamicron SC10278; experiment: Agar dilution assay, anaerobic bacteria (MIC); format: cell-based; conditions: B. thetaiotamicron SC10278, DST agar, 10^5 CFU, 37° C., 18 hours, anaerobic chamber
[7] = system: Pseudomonas aeruginosa SC8333; experiment: Agar dilution assay, aerobic test organisms (MIC); conditions: SC8333, 18 h
[8] = system: Bacteroides fragilis SC11085; experiment: Agar dilution assay, anaerobic bacteria (MIC); format: cell-based; conditions: B. fragilis SC11085, DST agar, 10^5 CFU, 37° C., 18 hours, anaerobic chamber
[9] = system: Clostridium difficile SC11251; experiment: Agar dilution assay, anaerobic bacteria (MIC); format: cell-based; conditions: Clostridioides difficile; C. difficile SC11251; DST agar, 10^5 CFU, 37° C., 18 hours, anaerobic chamber
[10] = system: Enterobacter cloacae SC8236; experiment: Agar dilution assay, aerobic test organisms (MIC); conditions: SC8236, 18 h
[11] = system: Bacteroides fragilis SC10277; experiment: Agar dilution assay, anaerobic bacteria (MIC); format: cell-based; conditions: B. fragilis SC10277, DST agar, 10^5 CFU, 37° C., 18 hours, anaerobic chamber
[12] = system: Staphylococcus aureus SC2400; experiment: Agar dilution assay, aerobic test organisms (MIC); conditions: SC2400, 18 h
[13] = system: Fusobacterium necrophorum SC10338; experiment: Agar dilution assay, anaerobic bacteria (MIC); format: cell-based; conditions: F. necrophorum SC10338, DST agar, 10^5 CFU, 37° C., 18 hours, anaerobic chamber
[14] = system: Bacteroides fragilis SC9844; experiment: Agar dilution assay, anaerobic bacteria (MIC); format: cell-based; conditions: B. fragilis SC9844, DST agar, 10^5 CFU, 37° C., 18 hours, anaerobic chamber
[15] = system: Klebsiella pneumoniae SC9527; experiment: Agar dilution assay, aerobic test organisms (MIC); conditions: SC9527, 18 h
[16] = system: Streptococcus faecalis SC9011; experiment: Agar dilution assay, aerobic test organisms (MIC); conditions: Enterococcus faecalis, SC9011, 18 h
Escherichia coli SC8294 = experiment: Agar dilution assay, aerobic test organisms (MIC); conditions: SC8294, 18 h
[17] = system: Staphylococcus aureus SC2399; experiment: Agar dilution assay, aerobic test organisms (MIC); conditions: SC2399, 18 h
[18] = Photolability (half-life); format: physicochemical; conditions: exposure to light; read-out: photolabile, half-life
[19] = system: Salmonella typhosa SC1195; experiment: Agar dilution assay, aerobic test organisms (MIC); conditions: Salmonella enterica, 18 h
[20] = system: Clostridium perfringens SC11256; experiment: microbe, parasite or virus in culture; format: cell-based; conditions: SC11256, 18 h
[21] = system: Bacteroides thetaiotamicron SC9005; experiment: Agar dilution assay, anaerobic bacteria (MIC); format: cell-based; conditions: B. thetaiotamicron SC9005, DST agar, 10^5 CFU, 37° C., 18 hours, anaerobic chamber
[22] = system: Streptococcus agalactiae SC9287; experiment: Agar dilution assay, aerobic test organisms (MIC); conditions: SC9287, 18 h
[23] = system: Hemophilus vaginalis SC9640; experiment: Agar dilution assay, anaerobic bacteria (MIC); format: cell-based; conditions: Gardnerella vaginalis; H. vaginalis SC9640; DST agar, 10^5 CFU, 37° C., 18 hours, anaerobic chamber
[24] = system: Clostridium septicum SC1780; experiment: Agar dilution assay, anaerobic bacteria (MIC); format: cell-based; conditions: SC1780, 18 h
Procedure: The susceptibility of a number of anaerobic bacteria was also determined by an agar dilution technique. Test organisms were prepared from 24-48 hour cultures grown in Chopped Meat Broth (Scott Laboratories, Fiskeville, R.I.) or from washings from chocolate agar slants. These slants were prepared by adding hemoglobin to Proteose #3 Agar (Difco) to a concentration of one percent. The growth was washed off the slants with Brain Heart Infusion Broth (BBL Microbiology Systems) and diluted to a density of 10^8 CFU/ml. The subject compound was dissolved in the appropriate diluent at a concentration of 1000 μg/ml.
The agar dilution assays yielded the following results: […]

[25] = system: Staphylococcus aureus SC1276; experiment: Agar dilution assay, aerobic test organisms (MIC); conditions: SC1276, 18 h

Which MIC [1] does the source give for `COC1=CC(=O)C=CC1=[N+]=[N-]` here?
The MIC was 0.2 µg/mL (≈ 1.33 µM).

What about the MIC [2] of the same compound?
Its MIC is less than 0.05 µg/mL.

And the MIC [3]?
Its MIC is 12.5 µg/mL (≈ 83.3 µM).

And the MIC (Proteus mirabilis SC3855)?
The MIC was 3.1 µg/mL (≈ 20.6 µM).

And the MIC [4]?
The MIC was 3.1 µg/mL (≈ 20.6 µM).

What about the MIC (Shigella sonnei SC8449) of the same compound?
The MIC was 1.6 µg/mL (≈ 10.7 µM).

And the MIC (Escherichia coli SC10896)?
Its MIC is 6.3 µg/mL (≈ 42 µM).

What about the activity against bacteria [5] of the same compound?
The activity against bacteria was “activity against a variety of gram positive and gram negative bacteria, particularly against anaerobic bacteria”.

What about the MIC [6] of the same compound?
Its MIC is 0.4 µg/mL (≈ 2.66 µM).

And the MIC [7]?
The MIC was 25 µg/mL (≈ 167 µM).

And the MIC [8]?
Its MIC is 0.2 µg/mL (≈ 1.33 µM).

What about the MIC [9] of the same compound?
Its MIC is 0.4 µg/mL (≈ 2.66 µM).

What about the MIC [10] of the same compound?
The MIC was 50 µg/mL (≈ 333 µM).

What about the MIC [11] of the same compound?
Its MIC is 0.4 µg/mL (≈ 2.66 µM).

What about the MIC [12] of the same compound?
Its MIC is 12.5 µg/mL (≈ 83.3 µM).

And the MIC [13]?
Its MIC is less than 0.05 µg/mL.

And the MIC [14]?
The MIC was 0.4 µg/mL (≈ 2.66 µM).

And the MIC [15]?
Its MIC is 25 µg/mL (≈ 167 µM).

And the MIC [16]?
The MIC was 6.3 µg/mL (≈ 42 µM).

What about the MIC (Escherichia coli SC8294) of the same compound?
The MIC was 3.1 µg/mL (≈ 20.6 µM).

What about the MIC [17] of the same compound?
The MIC was 12.5 µg/mL (≈ 83.3 µM).

What about the half-life [18] of the same compound?
Its half-life is less than 2 h.

What about the MIC [19] of the same compound?
The MIC was 1.6 µg/mL (≈ 10.7 µM).

What about the MIC [20] of the same compound?
Its MIC is 0.2 µg/mL (≈ 1.33 µM).

And the MIC [21]?
The MIC was 0.4 µg/mL (≈ 2.66 µM).

And the MIC [22]?
The MIC was 6.3 µg/mL (≈ 42 µM).

And the MIC [23]?
The MIC was 0.4 µg/mL (≈ 2.66 µM).

What about the MIC [24] of the same compound?
Its MIC is less than 0.05 µg/mL.

And the MIC [25]?
Its MIC is 2.5 µg/mL (≈ 16.7 µM).
